Assay results published in patent US20250215030A1, “STAT MODULATORS AND USES THEREOF” (Recludix Pharma, Inc., priority 2022, published 2025).

Key:
[1] = target: T1, pSTAT3 (pY705-STAT3) (Homo sapiens, UniProt P40763); assay: MSD-pSTAT-PBMC Assay (pSTAT3, IL-6 stimulated); assay type: cell-based; settings: PBMC, compound 3 hrs, then 10 ng/mL IL-6 for 10 min; MSD pY705-STAT3; read-out: pSTAT3
T1 construct: host or cells: cryopreserved PBMC
Summary of the method: (§1)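 Phospho-STAT levels captured on anti-STAT3 or anti-STAT6 plates and detected with anti-pY705 or anti-pY641 antibodies (MSD read-out). Cryopreserved human PBMCs received compound for 3 h before a 10 min pulse of IL-6 (10 ng/mL, STAT3) or IL-4 (1 ng/mL, STAT6). IC50 fitted after unstimulated-background subtraction and DMSO normalization.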

[2] = target: T2, pSTAT6 (pY641-STAT6) (Homo sapiens, UniProt P42226); assay: MSD-pSTAT-PBMC Assay (pSTAT6, IL-4 stimulated); assay type: cell-based; settings: compound 3 hrs, then 1 ng/mL IL-4 for 10 min
T2 construct: host or cells: cryopreserved PBMC
T2 sequence (P42226 1-847): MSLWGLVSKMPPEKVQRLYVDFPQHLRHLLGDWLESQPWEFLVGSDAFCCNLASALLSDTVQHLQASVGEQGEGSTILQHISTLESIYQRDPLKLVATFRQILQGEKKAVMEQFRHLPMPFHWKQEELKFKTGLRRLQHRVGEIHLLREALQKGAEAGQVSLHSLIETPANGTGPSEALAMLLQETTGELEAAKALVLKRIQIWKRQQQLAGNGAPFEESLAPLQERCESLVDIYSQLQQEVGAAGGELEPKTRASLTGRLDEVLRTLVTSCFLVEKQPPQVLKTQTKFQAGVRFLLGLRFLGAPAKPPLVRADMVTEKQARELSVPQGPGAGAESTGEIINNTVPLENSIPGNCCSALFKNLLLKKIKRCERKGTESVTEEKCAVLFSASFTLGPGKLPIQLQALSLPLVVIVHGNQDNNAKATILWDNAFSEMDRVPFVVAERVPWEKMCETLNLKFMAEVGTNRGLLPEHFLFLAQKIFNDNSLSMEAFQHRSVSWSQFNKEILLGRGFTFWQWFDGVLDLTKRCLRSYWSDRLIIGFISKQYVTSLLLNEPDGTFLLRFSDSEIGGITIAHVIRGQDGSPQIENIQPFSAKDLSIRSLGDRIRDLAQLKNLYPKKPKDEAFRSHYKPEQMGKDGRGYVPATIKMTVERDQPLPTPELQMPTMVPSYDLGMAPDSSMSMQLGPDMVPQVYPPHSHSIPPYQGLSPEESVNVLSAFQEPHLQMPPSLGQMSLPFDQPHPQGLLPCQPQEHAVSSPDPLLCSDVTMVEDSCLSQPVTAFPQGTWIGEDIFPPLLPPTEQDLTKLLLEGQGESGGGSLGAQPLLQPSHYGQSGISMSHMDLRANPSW
Summary of the method: as §1

T1 sequence (P40763 whole entry): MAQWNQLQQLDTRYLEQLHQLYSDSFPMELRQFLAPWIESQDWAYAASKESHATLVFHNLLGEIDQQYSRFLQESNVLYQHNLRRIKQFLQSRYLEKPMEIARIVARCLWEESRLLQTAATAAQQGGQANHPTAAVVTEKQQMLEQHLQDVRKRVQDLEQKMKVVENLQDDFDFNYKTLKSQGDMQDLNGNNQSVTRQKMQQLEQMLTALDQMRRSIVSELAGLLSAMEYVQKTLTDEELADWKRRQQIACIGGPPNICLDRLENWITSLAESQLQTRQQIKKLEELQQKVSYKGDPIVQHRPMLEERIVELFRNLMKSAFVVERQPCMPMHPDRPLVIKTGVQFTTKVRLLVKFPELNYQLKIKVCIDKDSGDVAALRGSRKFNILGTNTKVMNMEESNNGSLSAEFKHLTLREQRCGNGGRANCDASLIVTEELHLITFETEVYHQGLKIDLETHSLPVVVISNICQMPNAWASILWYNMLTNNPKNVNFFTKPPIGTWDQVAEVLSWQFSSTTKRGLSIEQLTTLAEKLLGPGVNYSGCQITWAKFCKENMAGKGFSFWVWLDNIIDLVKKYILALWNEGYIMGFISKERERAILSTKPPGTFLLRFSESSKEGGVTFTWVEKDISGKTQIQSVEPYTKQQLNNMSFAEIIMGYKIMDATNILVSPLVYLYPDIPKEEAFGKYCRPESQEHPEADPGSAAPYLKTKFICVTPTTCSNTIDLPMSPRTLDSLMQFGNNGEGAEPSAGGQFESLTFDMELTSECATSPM

| Structure (SMILES) | IC50 [1] [nM] | IC50 [2] [µM] |
| --- | --- | --- |
| COCCCOC(=O)OCOP(=O)(OCOC(=O)OCCCOC)C(F)(F)c1ccc2sc(C(=O)N[C@H]3C[C@@H]4C[C@@H]4C[C@H]4CC[C@@H](C(=O)N5CC(C(=O)N6CCOCC6)C5)N4C3=O)cc2c1 [Compound 169, (((difluoro(2-(((3S,6S,7aS, 8aR,9aR)-3-(3-(morpholine-4-carbonyl)azetidine-1-carbonyl)-5-oxodecahydro-1H-cyclopropa [d]pyrrolo[1,2-a]azocin-6-yl)carbamoyl)benzo[b]thiophen-5-yl)methyl)phosphoryl)bis(oxy)) bis(methylene) bis(3-methoxypropyl) bis(carbonate)] | 100 to 1000 | > 3 |
| CC(C)(C)OC(=O)OCOP(=O)(OCOC(=O)OC(C)(C)C)C(F)(F)c1ccc2sc(C(=O)N[C@H]3C[C@@H]4C[C@@H]4C[C@H]4CC[C@@H](C(=O)N5CC(C(=O)N6CCOCC6)C5)N4C3=O)cc2c1 [Compound 170, di-tert-butyl ((((difluoro(2-(((3S,6S,7aS, 8aR,9aR)-3-(3-(morpholine-4-carbonyl)azetidine-1-carbonyl)-5-oxodecahydro-1H-cyclopropa[d]pyrrolo[1,2-a]azocin-6-yl)carbamoyl)benzo[b]thiophen-5-yl)methyl)phosphoryl)bis(oxy))bis(methylene)) bis(carbonate)] | 1000 to 3000 | > 3 |
| COCCOC(=O)OCOP(=O)(OCOC(=O)OCCOC)C(F)(F)c1ccc2sc(C(=O)N[C@H]3C[C@@H]4C[C@@H]4C[C@H]4CC[C@@H](C(=O)N5CC(C(=O)N6CCOCC6)C5)N4C3=O)cc2c1 [Compound 172, (((difluoro(2-(((3S,6S,7aS, 8aR,9aR)-3-(3-(morpholine-4-carbonyl)azetidine-1-carbonyl)-5-oxodecahydro-1H-cyclopropa [d]pyrrolo[1,2-a]azocin-6-yl)carbamoyl)benzo[b]thiophen-5-yl)methyl)phosphoryl)bis(oxy)) bis(methylene) bis(2-methoxyethyl) bis(carbonate)] | 100 to 1000 | > 3 |
| C[C@H](NP(=O)(Oc1ccccc1)C(F)(F)c1ccc2sc(C(=O)N[C@H]3C[C@@H]4C[C@@H]4C[C@H]4CC[C@@H](C(=O)N5CC(C(=O)N6CCOCC6)C5)N4C3=O)cc2c1)C(=O)OCc1ccccc1 (stereo partly drawn) [Compound 173, benzyl ((difluoro(2-(((3S,6S,7aS, 8aR,9aR)-3-(3-(morpholine-4-carbonyl)azetidine-1-carbonyl)-5-oxodecahydro-1H-cyclopropa[d]pyrrolo[1,2-a]azocin-6-yl)carbamoyl)benzo[b]thiophen-5-yl)methyl) (phenoxy)phosphoryl)-L-alaninate] | 1000 to 3000 | > 3 |
| CC(C)(C)C(=O)OCOP(=O)(OCOC(=O)C(C)(C)C)C(F)(F)c1ccc2sc(C(=O)N[C@H]3C[C@@H]4C[C@@H]4C[C@H]4CC[C@@H](C(=O)Nc5ccc(-c6ccccc6)cc5)N4C3=O)cc2c1 [Compound 175, ((((2-(((3S,6S,7aS, 8aR,9aR)-3-([1,1′-biphenyl]-4-ylcarbamoyl)-5-oxodecahydro-1H-cyclopropa[d]pyrrolo[1,2-a]azocin-6-yl)carbamoyl)benzo[b]thiophen-5-yl)difluoro-methyl)phosphoryl)bis(oxy)) bis(methylene) bis(2,2-dimethyl-propanoate)] | 100 to 1000 | > 3 |
| CCOC(=O)CCCOP(=O)(OCCCC(=O)OCC)C(F)(F)c1ccc2sc(C(=O)N[C@H]3C[C@@H]4C[C@@H]4C[C@H]4CC[C@@H](C(=O)N5CC(C(=O)N6CCOCC6)C5)N4C3=O)cc2c1 [Compound 177, diethyl 4,4′-(((difluoro(2-(((3S,6S,7aS, 8aR,9aR)-3-(3-(morpholine-4-carbonyl)azetidine-1-carbonyl)-5-oxodecahydro-1H-cyclopropa[d]pyrrolo[1,2-a]azocin-6-yl)carbamoyl)benzo[b]thiophen-5-yl)methyl)phosphoryl)bis(oxy)) dibutyrate] | > 3000 | > 3 |
| CC(C)OC(=O)[C@@H](C)CNP(=O)(Oc1ccccc1)C(F)(F)c1ccc2sc(C(=O)N[C@H]3C[C@@H]4C[C@@H]4C[C@H]4CC[C@@H](C(=O)N5CC(C(=O)N6CCOCC6)C5)N4C3=O)cc2c1 (stereo partly drawn) [Compound 184, isopropyl (2S)-3-(((difluoro(2-(((3S,6S,7aS, 8aR,9aR)-3-(3-(morpholine-4-carbonyl)azetidine-1-carbonyl)-5-oxodecahydro-1H-cyclopropa [d]pyrrolo[1,2-a]azocin-6-yl)carbamoyl)benzo[b]thiophen-5-yl)methyl) (phenoxy)phosphoryl)amino)-2-methyl-propanoate] | > 3000 | > 3 |

Now from value to molecule:

| IC50 [1] [nM] | IC50 [2] [µM] | Structure (SMILES) |
| --- | --- | --- |
| < 100 | > 3 | CC(C)(C)C(=O)SCCOP(=O)(OCCSC(=O)C(C)(C)C)C(F)(F)c1ccc2sc(C(=O)N[C@H]3C[C@@H]4C[C@@H]4C[C@H]4CC[C@@H](C(=O)N5CC(C(=O)N6CCOCC6)C5)N4C3=O)cc2c1 [Compound 171, S,S′-((((difluoro(2-(((3S,6S,7aS, 8aR,9aR)-3-(3-(morpholine-4-carbonyl)azetidine-1-carbonyl)-5-oxodecahydro-1H-cyclopropa[d]pyrrolo[1,2-a]azocin-6-yl)carbamoyl)benzo[b]thiophen-5-yl)methyl)phosphoryl)bis(oxy))bis(ethane-2,1-diyl)) bis(2,2-dimethyl-propanethioate)] |
| < 100 | > 3 | CC(C)OC(=O)OCOP(=O)(OCOC(=O)OC(C)C)C(F)(F)c1ccc2sc(C(=O)N[C@H]3C[C@@H]4C[C@@H]4C[C@H]4CC[C@@H](C(=O)N5CC(C(=O)N6CCOCC6)C5)N4C3=O)cc2c1 [Compound 176, (((difluoro(2-(((3S,6S,7aS, 8aR,9aR)-3-(3-(morpholine-4-carbonyl)azetidine-1-carbonyl)-5-oxodecahydro-1H-cyclopropa[d]pyrrolo[1,2-a]azocin-6-yl)carbamoyl)benzo[b]thiophen-5-yl)methyl)phosphoryl)bis(oxy)) bis(methylene) diisopropyl bis(carbonate)] |
| < 100 | 0.1 to 1 | CCCC(=O)SCCOP(=O)(OCCSC(=O)CCC)C(F)(F)c1ccc2sc(C(=O)N[C@H]3C[C@@H]4C[C@@H]4C[C@H]4CC[C@@H](C(=O)N5CC(C(=O)N6CCOCC6)C5)N4C3=O)cc2c1 [Compound 178, S,S′-((((difluoro(2-(((3S,6S,7aS, 8aR,9aR)-3-(3-(morpholine-4-carbonyl)azetidine-1-carbonyl)-5-oxodecahydro-1H-cyclopropa[d]pyrrolo[1,2-a]azocin-6-yl)carbamoyl)benzo[b]thiophen-5-yl)methyl)phosphoryl)bis(oxy))bis(ethane-2,1-diyl)) dibutane-thioate] |
| < 100 | > 3 | CC(C)CC(=O)SCCOP(=O)(OCCSC(=O)CC(C)C)C(F)(F)c1ccc2sc(C(=O)N[C@H]3C[C@H]4C[C@H]4C[C@H]4CC[C@@H](C(=O)N5CC(n6ccnc6)C5)N4C3=O)cc2c1 [Compound 179, S,S′-(((((2-(((3S,6S,7aR, 8aS,9aR)-3-(3-(1H-imidazol-1-yl)azetidine-1-carbonyl)-5-oxodecahydro-1H-cyclopropa[d]pyrrolo[1,2-a]azocin-6-yl)carbamoyl)benzo[b]thiophen-5-yl)difluoromethyl)phosphoryl)bis(oxy))bis(ethane-2,1-diyl)) bis(3-methylbutane thioate)] |
| < 100 | > 3 | CC(C)(C)C(=O)SCCOP(=O)(OCCSC(=O)C(C)(C)C)C(F)(F)c1ccc2sc(C(=O)NC3CC4CC4CC4CCC(C(=O)N5CC(n6ccnc6)C5)N4C3=O)cc2c1 [Compound 180, S,S′-(((((2-(((3S,6S,7aR, 8aS,9aR)-3-(3-(1H-imidazol-1-yl)azetidine-1-carbonyl)-5-oxodecahydro-1H-cyclopropa[d]pyrrolo[1,2-a]azocin-6-yl)carbamoyl)benzo[b]thiophen-5-yl)difluoromethyl)phosphoryl)bis(oxy))bis(ethane-2,1-diyl)) bis(2,2-dimethyl-propanethioate)] |
| < 100 | > 3 | CC(C)(C)C(=O)SCCOP(=O)(OCCSC(=O)C(C)(C)C)C(F)(F)c1ccc2sc(C(=O)N[C@H]3C[C@@H]4C[C@@H]4C[C@H]4CC[C@@H](C(=O)N5CC(n6ccnc6)C5)N4C3=O)cc2c1 [Compound 181, S,S′-(((((2-(((3S,6S,7aS, 8aR,9aR)-3-(3-(1H-imidazol-1-yl)azetidine-1-carbonyl)-5-oxodecahydro-1H-cyclopropa[d]pyrrolo[1,2-a]azocin-6-yl)carbamoyl)benzo[b]thiophen-5-yl)difluoromethyl)phosphoryl)bis(oxy))bis(ethane-2,1-diyl)) bis(2,2-dimethyl-propanethioate)] |
